Assay results from PubChem BioAssay (NCI).
Where “and” joins values, the source holds several entries; their conditions need not be identical. Identical values can stand only once.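 How tested: cells in 96-well plates exposed to compound for 48 hours at five concentrations. GI50 marks 50% less growth. TGI marks complete inhibition of growth.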

How the values were obtained:
Experiment in all cases: DTP human tumour cell line panel, 48 h
IGROV1 ovarian = tested on: IGROV1 ovarian
UACC-257 melanoma = tested on: UACC-257 melanoma
A549 NSCLC = tested on: A549 NSCLC
KM12 colon = tested on: KM12 colon
UO-31 renal = tested on: UO-31 renal
EKVX NSCLC = tested on: EKVX NSCLC
RPMI-8226 leukemia = tested on: RPMI-8226 leukemia
NCI/ADR-RES ovarian = tested on: NCI/ADR-RES ovarian
MOLT-4 leukemia = tested on: MOLT-4 leukemia
M14 melanoma = tested on: M14 melanoma

In the case of `N#CC(C#N)=C1C(=O)NC(N)=C1C#N`, the TGI (IGROV1 ovarian) is reported as > 100 µM, the TGI (UACC-257 melanoma) is reported as > 100 µM and the TGI (A549 NSCLC) is reported as > 100 µM. For the same compound, the TGI (KM12 colon) was > 100 µM, the TGI (UO-31 renal) was > 100 µM and the TGI (EKVX NSCLC) was > 100 µM. For the same compound, the TGI (RPMI-8226 leukemia) was > 100 µM, the TGI (NCI/ADR-RES ovarian) was > 100 µM and the TGI (MOLT-4 leukemia) was > 100 µM. For the same compound, the TGI (M14 melanoma) was > 100 µM.

For `O=c1oc2ccccc2c(O)c1C(C/C(CCN1CCCC1)=N\Nc1ccccc1)c1ccccc1` (configuration not stated), the TGI (IGROV1 ovarian) was > 100 µM, the TGI (UACC-257 melanoma) was > 100 µM and the TGI (A549 NSCLC) was > 100 µM. The TGI (KM12 colon) was > 100 µM, the TGI (UO-31 renal) was > 100 µM and the TGI (EKVX NSCLC) was > 100 µM. The TGI (RPMI-8226 leukemia) was 77.7 µM and the TGI (M14 melanoma) was > 100 µM.

`CSc1scc2c1/C(=N/NC(N)=O)CCC2` was tested, and the TGI (UACC-257 melanoma) was > 100 µM, the TGI (A549 NSCLC) was > 100 µM and the TGI (KM12 colon) was > 100 µM. For the same compound, the TGI (UO-31 renal) was > 100 µM, the TGI (RPMI-8226 leukemia) was > 100 µM and the TGI (NCI/ADR-RES ovarian) was 73.4 µM. For the same compound, the TGI (MOLT-4 leukemia) was > 100 µM and the TGI (M14 melanoma) was > 100 µM.

`OC(CC(O)(C(F)(F)F)C(F)(F)F)c1ccc(C(O)CC(O)(C(F)(F)F)C(F)(F)F)cc1` (configuration not stated) gave a TGI (IGROV1 ovarian) of 23.3 µM, a TGI (UACC-257 melanoma) of 32.2 µM and a TGI (A549 NSCLC) of 28.6 µM. It also gave a TGI (UO-31 renal) of 23 µM, a TGI (EKVX NSCLC) of 28 µM and a TGI (RPMI-8226 leukemia) of 48.8 µM. It also gave a TGI (NCI/ADR-RES ovarian) of 29.6 µM, a TGI (MOLT-4 leukemia) of 35.8 µM and a TGI (M14 melanoma) of 29.9 µM.

For `COC(=O)c1c(O)ccc2c1c1c(n2Cc2ccccc2)C(=O)c2ccccc2C1`, the TGI (IGROV1 ovarian) was > 100 µM, the TGI (UACC-257 melanoma) was > 100 µM and the TGI (A549 NSCLC) was > 100 µM. The TGI (KM12 colon) was > 100 µM, the TGI (UO-31 renal) was > 100 µM and the TGI (RPMI-8226 leukemia) was 32.6 µM. For the same compound, the TGI (NCI/ADR-RES ovarian) was 89.9 µM, the TGI (MOLT-4 leukemia) was 37.6 µM and the TGI (M14 melanoma) was > 100 µM.

`O=[N+]([O-])C(Cl)=C/C(=C(\Cl)SCc1ccccc1)[N+](=O)[O-]` gave a TGI (IGROV1 ovarian) of 91 µM, a TGI (UACC-257 melanoma) of 79.7 µM and a TGI (A549 NSCLC) of 73.5 µM. For the same compound, the TGI (KM12 colon) was > 100 µM, the TGI (UO-31 renal) was 40.2 µM and the TGI (EKVX NSCLC) was 35.2 µM. The TGI (NCI/ADR-RES ovarian) was > 100 µM, the TGI (MOLT-4 leukemia) was 46.9 µM and the TGI (M14 melanoma) was 53.8 µM.

For `C=C(C(=O)O[C@H]1C(=O)C2=C(C)CCC3C(=C)C(=O)O[C@@H]3C2[C@]1(C)O)C1CC[C@]2(C)CCCC(=C)[C@H]2C1` (some centres not stated), the GI50 (IGROV1 ovarian) was 7.28 µM, the TGI (IGROV1 ovarian) was 13.8 µM and 11.3 µM and the TGI (UACC-257 melanoma) was 14 µM and 12 µM. For the same compound, the GI50 (A549 NSCLC) was 5.59 µM, the TGI (A549 NSCLC) was 12.9 µM and 24.5 µM and the TGI (KM12 colon) was 20.5 µM. For the same compound, the TGI (UO-31 renal) was 12 µM and 16.5 µM, the TGI (EKVX NSCLC) was 17.8 µM and 22.7 µM and the GI50 (NCI/ADR-RES ovarian) was 8.52 µM. For the same compound, the TGI (NCI/ADR-RES ovarian) was 33.6 µM and > 23.8 µM, the TGI (MOLT-4 leukemia) was 5.38 µM and the GI50 (M14 melanoma) was 5.74 µM. For the same compound, the TGI (M14 melanoma) was 12.3 µM and 20.3 µM.

With `CC1(C)N=C(c2ccccn2)C(c2ccccn2)=NC1(C)C` the TGI (IGROV1 ovarian) was > 100 µM, the TGI (UACC-257 melanoma) was > 100 µM and the TGI (A549 NSCLC) was > 100 µM. The TGI (KM12 colon) was > 100 µM, the TGI (UO-31 renal) was > 100 µM and the TGI (EKVX NSCLC) was > 100 µM. For the same compound, the TGI (RPMI-8226 leukemia) was > 100 µM, the TGI (MOLT-4 leukemia) was > 100 µM and the TGI (M14 melanoma) was > 100 µM.

In the case of `CC(=O)OC1COC(Nc2nc(N)n(C)c(=O)c2N=O)C(OC(C)=O)C1OC(C)=O` (configuration not stated), the TGI (IGROV1 ovarian) is reported as > 10 µM, the TGI (UACC-257 melanoma) is reported as > 10 µM and the TGI (A549 NSCLC) is reported as > 10 µM. For the same compound, the TGI (KM12 colon) was > 10 µM, the TGI (EKVX NSCLC) was > 10 µM and the TGI (RPMI-8226 leukemia) was > 10 µM. The TGI (NCI/ADR-RES ovarian) was > 10 µM, the TGI (MOLT-4 leukemia) was > 10 µM and the TGI (M14 melanoma) was > 10 µM.

`CN1C/C(=C\C=C\c2ccccc2)C(=O)/C(=C/C=C/c2ccccc2)C1` was tested, and the TGI (IGROV1 ovarian) was > 100 µM, the TGI (UACC-257 melanoma) was > 100 µM and the TGI (A549 NSCLC) was > 100 µM. For the same compound, the TGI (KM12 colon) was > 100 µM, the TGI (UO-31 renal) was > 100 µM and the TGI (EKVX NSCLC) was > 100 µM. For the same compound, the TGI (RPMI-8226 leukemia) was > 100 µM, the TGI (MOLT-4 leukemia) was > 100 µM and the TGI (M14 melanoma) was > 100 µM.

`O=C1c2ccccc2C(=O)c2[nH]c(Cc3ccc(F)cc3)nc21` was tested, and the TGI (IGROV1 ovarian) was 26.2 µM, the TGI (UACC-257 melanoma) was 30.4 µM and the TGI (A549 NSCLC) was 38.1 µM. For the same compound, the TGI (KM12 colon) was 32.9 µM, the TGI (UO-31 renal) was 59.5 µM and the TGI (EKVX NSCLC) was 39.8 µM. The TGI (RPMI-8226 leukemia) was 95.8 µM, the TGI (MOLT-4 leukemia) was 71.2 µM and the TGI (M14 melanoma) was 30.2 µM.
